Source: ChEMBL document CHEMBL5113398, “Design and synthesis of new quinoline derivatives as selective C-RAF kinase inhibitors with potent anticancer activity” (Eur J Med Chem, 2022)
Values after ≈ are worked out from the molar mass of the structure shown. Values belong to the compound of their own block, whether it stands above or below them.

Legend:
SK-MEL-2 [1] = test: Anticancer activity against human SK-MEL-2 cells assessed as total cell growth inhibition incubated for 48 hrs by SRB assay; type: functional
SK-MEL-28 = test: Anticancer activity against human SK-MEL-28 cells assessed as total cell growth inhibition incubated for 48 hrs by SRB assay; type: functional
HOP-62 = test: Anticancer activity against human HOP-62 cells assessed as cell growth inhibition incubated for 48 hrs by SRB assay; type: functional
[2] = n-Octanol/PBS partition coefficient, logD of the compound at pH 7.4; type: physicochemical
NCI-H23 = test: Anticancer activity against human NCI-H23 cells assessed as total cell growth inhibition incubated for 48 hrs by SRB assay; type: functional
SN12C = test: Anticancer activity against human SN12C cells assessed as total cell growth inhibition incubated for 48 hrs by SRB assay; type: functional
SF-539 = test: Anticancer activity against human SF-539 cells assessed as total cell growth inhibition incubated for 48 hrs by SRB assay; type: functional
HCC 2998 = test: Anticancer activity against human HCC 2998 cells assessed as total cell growth inhibition incubated for 48 hrs by SRB assay; type: functional
UACC-62 = test: Anticancer activity against human UACC-62 cells assessed as total cell growth inhibition incubated for 48 hrs by SRB assay; type: functional
CAKI-1 = test: Anticancer activity against human CAKI-1 cells assessed as cell growth inhibition incubated for 48 hrs by SRB assay; type: functional
DU-145 = test: Anticancer activity against human DU-145 cells assessed as total cell growth inhibition incubated for 48 hrs by SRB assay; type: functional
SK-MEL-2 [3] = test: Anticancer activity against human SK-MEL-2 cells assessed as cell growth inhibition incubated for 48 hrs by SRB assay; type: functional
HL-60 = test: Anticancer activity against human HL-60 cells assessed as total cell growth inhibition incubated for 48 hrs by SRB assay; type: functional
LOX IMVI [4] = test: Anticancer activity against human LOX IMVI cells assessed as cell growth inhibition incubated for 48 hrs by SRB assay; type: functional
SNB-19 = test: Anticancer activity against human SNB-19 cells assessed as total cell growth inhibition incubated for 48 hrs by SRB assay; type: functional
KM12 = test: Anticancer activity against human KM12 cells assessed as cell growth inhibition incubated for 48 hrs by SRB assay; type: functional
SK-MEL-5 = test: Anticancer activity against human SK-MEL-5 cells assessed as total cell growth inhibition incubated for 48 hrs by SRB assay; type: functional
IGROV-1 [5] = test: Anticancer activity against human IGROV-1 cells assessed as cell growth inhibition incubated for 48 hrs by SRB assay; type: functional
[6] = target: Vascular endothelial growth factor receptor 2 (Homo sapiens) (UniProt P35968); test: Inhibition of KDR (unknown origin) at 1 uM in presence of ATP by hotspot kinase assay
Chain of Vascular endothelial growth factor receptor 2 (Homo sapiens) (P35968 whole entry): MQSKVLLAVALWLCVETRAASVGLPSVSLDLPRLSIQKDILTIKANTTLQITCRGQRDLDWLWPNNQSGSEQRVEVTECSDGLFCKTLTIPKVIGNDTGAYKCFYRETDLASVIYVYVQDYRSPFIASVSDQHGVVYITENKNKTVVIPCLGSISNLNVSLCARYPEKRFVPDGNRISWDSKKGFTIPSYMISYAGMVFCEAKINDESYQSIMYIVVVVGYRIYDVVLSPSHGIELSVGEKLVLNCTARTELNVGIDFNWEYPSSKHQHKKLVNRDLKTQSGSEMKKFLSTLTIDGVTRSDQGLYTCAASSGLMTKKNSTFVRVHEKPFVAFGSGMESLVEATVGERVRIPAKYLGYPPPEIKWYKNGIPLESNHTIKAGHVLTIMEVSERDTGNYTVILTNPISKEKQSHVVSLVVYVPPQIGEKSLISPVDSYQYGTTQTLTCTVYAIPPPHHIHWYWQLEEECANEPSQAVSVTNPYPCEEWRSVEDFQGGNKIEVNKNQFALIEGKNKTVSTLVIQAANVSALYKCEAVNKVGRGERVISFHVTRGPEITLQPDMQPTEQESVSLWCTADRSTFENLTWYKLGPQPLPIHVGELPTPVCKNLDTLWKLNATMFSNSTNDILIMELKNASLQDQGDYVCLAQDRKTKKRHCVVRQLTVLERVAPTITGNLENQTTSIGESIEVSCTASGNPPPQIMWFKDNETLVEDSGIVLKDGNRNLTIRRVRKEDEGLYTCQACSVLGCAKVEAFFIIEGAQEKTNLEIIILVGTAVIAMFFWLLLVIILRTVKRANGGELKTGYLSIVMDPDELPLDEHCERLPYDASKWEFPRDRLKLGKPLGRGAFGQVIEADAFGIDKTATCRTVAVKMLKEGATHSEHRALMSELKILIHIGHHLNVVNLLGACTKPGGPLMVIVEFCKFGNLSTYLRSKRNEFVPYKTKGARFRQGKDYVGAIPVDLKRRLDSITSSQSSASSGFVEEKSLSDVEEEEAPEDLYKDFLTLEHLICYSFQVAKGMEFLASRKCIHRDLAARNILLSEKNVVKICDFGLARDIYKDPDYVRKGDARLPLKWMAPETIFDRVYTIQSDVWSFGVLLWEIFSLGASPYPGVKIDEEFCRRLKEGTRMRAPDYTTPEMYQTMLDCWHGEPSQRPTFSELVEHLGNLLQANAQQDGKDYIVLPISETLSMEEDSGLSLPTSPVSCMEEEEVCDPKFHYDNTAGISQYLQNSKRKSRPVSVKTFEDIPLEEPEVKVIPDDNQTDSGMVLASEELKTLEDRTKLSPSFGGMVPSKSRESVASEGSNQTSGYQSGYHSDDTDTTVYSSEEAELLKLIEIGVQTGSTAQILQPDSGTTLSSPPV

MCF7 [7] = test: Anticancer activity against human MCF7 cells assessed as total cell growth inhibition incubated for 48 hrs by SRB assay; type: functional
RPMI-8226 = test: Anticancer activity against human RPMI-8226 cells assessed as total cell growth inhibition incubated for 48 hrs by SRB assay; type: functional
NCI-H522 = test: Anticancer activity against human NCI-H522 cells assessed as cell growth inhibition incubated for 48 hrs by SRB assay; type: functional
HT-29 = test: Anticancer activity against human HT-29 cells assessed as total cell growth inhibition incubated for 48 hrs by SRB assay; type: functional
EKVX = test: Anticancer activity against human EKVX cells assessed as total cell growth inhibition incubated for 48 hrs by SRB assay; type: functional
[8] = Aqueous solubility of compound by HPLC analysis; type: physicochemical
CCRF-CEM = test: Anticancer activity against human CCRF-CEM cells assessed as cell growth inhibition incubated for 48 hrs by SRB assay; type: functional
[9] = target: Vascular endothelial growth factor receptor 2 (Homo sapiens) (UniProt P35968); test: Inhibition of VEGFR2 (unknown origin) at 1 uM in presence of ATP by hotspot kinase assay
TK-10 [10] = test: Anticancer activity against human TK-10 cells assessed as cell growth inhibition incubated for 48 hrs by SRB assay; type: functional
K562 = test: Anticancer activity against human K562 cells assessed as cell growth inhibition incubated for 48 hrs by SRB assay; type: functional
COLO 205 = test: Anticancer activity against human COLO 205 cells assessed as cell growth inhibition incubated for 48 hrs by SRB assay; type: functional
[11] = target: Receptor-type tyrosine-protein kinase FLT3 (Homo sapiens) (UniProt P36888); test: Inhibition of FLT3 (unknown origin) at 1 uM in presence of ATP by hotspot kinase assay
Chain of Receptor-type tyrosine-protein kinase FLT3 (Homo sapiens) (P36888 whole entry): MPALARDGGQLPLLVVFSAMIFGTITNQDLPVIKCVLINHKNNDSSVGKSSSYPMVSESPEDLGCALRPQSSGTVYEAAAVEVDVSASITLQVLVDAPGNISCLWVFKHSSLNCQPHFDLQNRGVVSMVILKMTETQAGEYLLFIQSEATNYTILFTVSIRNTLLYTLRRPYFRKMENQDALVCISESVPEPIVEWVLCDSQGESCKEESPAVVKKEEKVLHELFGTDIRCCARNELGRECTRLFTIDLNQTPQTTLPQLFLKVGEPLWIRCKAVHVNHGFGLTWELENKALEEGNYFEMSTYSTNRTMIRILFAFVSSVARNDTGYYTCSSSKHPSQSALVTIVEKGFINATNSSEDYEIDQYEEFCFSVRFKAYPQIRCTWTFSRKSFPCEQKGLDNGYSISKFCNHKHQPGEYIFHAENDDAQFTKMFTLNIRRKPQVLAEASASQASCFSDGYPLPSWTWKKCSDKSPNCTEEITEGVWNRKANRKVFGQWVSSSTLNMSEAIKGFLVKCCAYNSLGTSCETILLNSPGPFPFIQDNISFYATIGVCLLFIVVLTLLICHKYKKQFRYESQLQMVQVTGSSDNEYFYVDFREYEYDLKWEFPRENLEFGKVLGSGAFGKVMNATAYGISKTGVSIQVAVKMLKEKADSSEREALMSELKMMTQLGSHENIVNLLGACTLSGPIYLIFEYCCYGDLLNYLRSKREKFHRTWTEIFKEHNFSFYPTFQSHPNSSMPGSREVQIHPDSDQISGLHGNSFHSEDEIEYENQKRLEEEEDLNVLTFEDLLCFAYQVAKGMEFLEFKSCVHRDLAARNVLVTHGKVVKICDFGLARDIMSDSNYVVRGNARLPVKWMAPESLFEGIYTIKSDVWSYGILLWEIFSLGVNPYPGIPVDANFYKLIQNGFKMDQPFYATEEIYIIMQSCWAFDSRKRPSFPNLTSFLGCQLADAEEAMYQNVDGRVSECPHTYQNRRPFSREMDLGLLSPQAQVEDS

BT-549 [12] = test: Anticancer activity against human BT-549 cells assessed as cell growth inhibition incubated for 48 hrs by SRB assay; type: functional
NCI/ADR-RES = test: Anticancer activity against human NCI/ADR-RES cells assessed as total cell growth inhibition incubated for 48 hrs by SRB assay; type: functional
SK-OV-3 = test: Anticancer activity against human SK-OV-3 cells assessed as total cell growth inhibition incubated for 48 hrs by SRB assay; type: functional
U-251 = test: Anticancer activity against human U-251 cells assessed as cell growth inhibition incubated for 48 hrs by SRB assay; type: functional
LOX IMVI [13] = test: Anticancer activity against human LOX IMVI cells assessed as total cell growth inhibition incubated for 48 hrs by SRB assay; type: functional
TK-10 [14] = test: Anticancer activity against human TK-10 cells assessed as total cell growth inhibition incubated for 48 hrs by SRB assay; type: functional
MCF7 [15] = test: Anticancer activity against human MCF7 cells assessed as cell growth inhibition incubated for 48 hrs by SRB assay; type: functional
MDA-MB-231 [16] = test: Anticancer activity against human MDA-MB-231 cells assessed as cell growth inhibition incubated for 48 hrs by SRB assay; type: functional
MDA-MB-231 [17] = test: Anticancer activity against human MDA-MB-231 cells assessed as total cell growth inhibition incubated for 48 hrs by SRB assay; type: functional
SF-268 = test: Anticancer activity against human SF-268 cells assessed as total cell growth inhibition incubated for 48 hrs by SRB assay; type: functional
NCI-H322M = test: Anticancer activity against human NCI-H322M cells assessed as cell growth inhibition incubated for 48 hrs by SRB assay; type: functional
IGROV-1 [18] = test: Anticancer activity against human IGROV-1 cells assessed as total cell growth inhibition incubated for 48 hrs by SRB assay; type: functional
UO-31 [19] = test: Anticancer activity against human UO-31 cells assessed as total cell growth inhibition incubated for 48 hrs by SRB assay; type: functional
[20] = test system: Serine/threonine-protein kinase B-raf (Homo sapiens), P15056 [V600E]; test: Inhibition of B-RAF V600E mutant (unknown origin) at 1 uM in presence of ATP by hotspot kinase assay
Chain of Serine/threonine-protein kinase B-raf (Homo sapiens), P15056 [V600E] (P15056 whole entry V600E): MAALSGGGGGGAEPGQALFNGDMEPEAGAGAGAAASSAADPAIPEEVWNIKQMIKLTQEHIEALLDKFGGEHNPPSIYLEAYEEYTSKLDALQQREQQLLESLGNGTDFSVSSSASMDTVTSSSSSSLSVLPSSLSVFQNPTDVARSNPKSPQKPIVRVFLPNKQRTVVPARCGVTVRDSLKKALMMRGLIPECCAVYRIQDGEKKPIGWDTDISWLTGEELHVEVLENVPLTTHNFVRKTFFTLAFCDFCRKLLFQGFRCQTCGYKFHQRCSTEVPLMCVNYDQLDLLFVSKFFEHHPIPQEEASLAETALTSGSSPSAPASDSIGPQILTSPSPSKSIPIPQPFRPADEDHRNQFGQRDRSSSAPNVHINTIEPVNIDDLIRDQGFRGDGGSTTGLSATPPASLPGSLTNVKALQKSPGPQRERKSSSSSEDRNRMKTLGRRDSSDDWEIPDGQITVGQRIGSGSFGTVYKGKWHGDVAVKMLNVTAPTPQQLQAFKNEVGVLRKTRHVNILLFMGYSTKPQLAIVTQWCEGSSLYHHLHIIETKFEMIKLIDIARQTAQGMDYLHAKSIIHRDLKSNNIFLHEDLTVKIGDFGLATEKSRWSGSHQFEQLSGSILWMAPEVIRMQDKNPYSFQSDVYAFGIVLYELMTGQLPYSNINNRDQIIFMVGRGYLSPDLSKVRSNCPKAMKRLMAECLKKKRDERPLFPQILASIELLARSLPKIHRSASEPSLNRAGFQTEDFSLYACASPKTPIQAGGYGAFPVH

RXF 393 = test: Anticancer activity against human RXF 393 cells assessed as cell growth inhibition incubated for 48 hrs by SRB assay; type: functional
UO-31 [21] = test: Anticancer activity against human UO-31 cells assessed as cell growth inhibition incubated for 48 hrs by SRB assay; type: functional
OVCAR-5 = test: Anticancer activity against human OVCAR-5 cells assessed as total cell growth inhibition incubated for 48 hrs by SRB assay; type: functional
BT-549 [22] = test: Anticancer activity against human BT-549 cells assessed as total cell growth inhibition incubated for 48 hrs by SRB assay; type: functional

logD [2]: 2.91
GI50 (SK-MEL-2 [3]): 1.74 µM
inhibition [6]: 4.5%
GI50 (NCI-H522): 1.63 µM
solubility [8]: 317 µM (≈ 211 µg/mL)
GI50 (CCRF-CEM): 1.41 µM
inhibition [9]: 6.34%
GI50 (K562): 1.41 µM
GI50 (COLO 205): 1.02 µM
inhibition [11]: 20.5%
GI50 (BT-549 [12]): 1.87 µM
GI50 (U-251): 1.13 µM
GI50 (MCF7 [15]): 1.43 µM
GI50 (MDA-MB-231 [16]): 1.7 µM
GI50 (NCI-H322M): 1.82 µM
inhibition [20]: 34.6%
SMILES: COc1cc2cc(Oc3ccc(NC(=O)Nc4cc(C(F)(F)F)cc(C(F)(F)F)c4)cc3)c(C)nc2cc1OCCN1CCOCC1
TGI (SK-MEL-2 [1]): 6.91 µM
TGI (SK-MEL-28): 6.94 µM
GI50 (HOP-62): 2.2 µM
TGI (NCI-H23): 6.69 µM
TGI (SN12C): 5.48 µM
TGI (SF-539): 5.25 µM
TGI (HCC 2998): 6.97 µM
TGI (UACC-62): 6.9 µM
GI50 (CAKI-1): 1.47 µM
TGI (DU-145): 7.05 µM
TGI (HL-60): 4.93 µM
GI50 (LOX IMVI [4]): 1.46 µM
TGI (SNB-19): 7.42 µM
GI50 (KM12): 1.53 µM
TGI (SK-MEL-5): 1.66 µM
GI50 (IGROV-1 [5]): 1.54 µM
TGI (MCF7 [7]): 3.91 µM
TGI (RPMI-8226): 2.12 µM
TGI (HT-29): 7.14 µM
TGI (EKVX): 6.68 µM
GI50 (TK-10 [10]): 3.7 µM
TGI (NCI/ADR-RES): 7.21 µM
TGI (SK-OV-3): 8.5 µM
TGI (LOX IMVI [13]): 5.09 µM
TGI (TK-10 [14]): 12.5 µM
TGI (MDA-MB-231 [17]): 6.45 µM
TGI (SF-268): 8.06 µM
TGI (IGROV-1 [18]): 6.9 µM
TGI (UO-31 [19]): 4.06 µM
GI50 (RXF 393): 1.12 µM
GI50 (UO-31 [21]): 1.01 µM
TGI (OVCAR-5): 7.97 µM
TGI (BT-549 [22]): 7.35 µM

logD [2]: 2.54
GI50 (SK-MEL-2 [3]): 2.38 µM
inhibition [6]: -2.9%
GI50 (NCI-H522): 2.04 µM
solubility [8]: 497 µM (≈ 305 µg/mL)
GI50 (CCRF-CEM): 1.72 µM
inhibition [9]: -5.85%
GI50 (K562): 0.88 µM
GI50 (COLO 205): 1.87 µM
inhibition [11]: 28.4%
GI50 (BT-549 [12]): 2.44 µM
GI50 (U-251): 2.83 µM
GI50 (MCF7 [15]): 1.46 µM
GI50 (MDA-MB-231 [16]): 2.83 µM
GI50 (NCI-H322M): 3.37 µM
inhibition [20]: 24.8%
SMILES: COc1cc2cc(Oc3ccc(NC(=O)Nc4ccc(F)c(C(F)(F)F)c4)cc3)c(C)nc2cc1OCCN1CCOCC1
TGI (SK-MEL-2 [1]): 7.58 µM
TGI (SK-MEL-28): 3.13 µM
GI50 (HOP-62): 3.99 µM
TGI (NCI-H23): 5.88 µM
TGI (SN12C): 15.5 µM
TGI (SF-539): 3.44 µM
TGI (HCC 2998): 16.7 µM
TGI (UACC-62): 4.24 µM
GI50 (CAKI-1): 2.06 µM
TGI (DU-145): 15.2 µM
TGI (HL-60): 6.14 µM
GI50 (LOX IMVI [4]): 1.44 µM
TGI (SNB-19): 19.3 µM
GI50 (KM12): 2.69 µM
TGI (SK-MEL-5): 2.36 µM
GI50 (IGROV-1 [5]): 2.69 µM
TGI (MCF7 [7]): 3.48 µM
TGI (RPMI-8226): 4.25 µM
TGI (HT-29): 21.8 µM
TGI (EKVX): 20.7 µM
GI50 (TK-10 [10]): 4.94 µM
TGI (NCI/ADR-RES): 12.1 µM
TGI (SK-OV-3): 26.7 µM
TGI (LOX IMVI [13]): 2.86 µM
TGI (TK-10 [14]): 25.1 µM
TGI (MDA-MB-231 [17]): 9.02 µM
TGI (SF-268): 19.8 µM
TGI (IGROV-1 [18]): 19.5 µM
TGI (UO-31 [19]): 10.6 µM
GI50 (RXF 393): 1.78 µM
GI50 (UO-31 [21]): 1.71 µM
TGI (OVCAR-5): 21.7 µM
TGI (BT-549 [22]): 8.46 µM
